Test results published in patent US5686459A, “Dioxopyrrolo pyrrole derivatives” (Hoffmann-La Roche Inc., priority 1995, dated 1997).
Where a name gives a salt, the structure may show the parent alone.

Tests used:
Format in all cases: biochemical
thrombin [1] = biological target: T1, thrombin (Homo sapiens, UniProt P00734); assay: inhibition of the amidolytic activity of thrombin (chromogenic substrate H-D-Phe-Pip-Arg-paranitroaniline); settings: substrate 10 or 50 μM; thrombin 0.5 nM final conc.; pH 7.8; room temperature
Protocol: The measurements were carried out on microtitre plates at room temperature. For this, in each well of the plate […] of buffer (50 mM Tris, 100 mM NaCl, 0.1% polyethylene glycol; pH 7.8) were mixed with […] of the inhibitor dissolved in DMSO and diluted in the buffer and […] of human thrombin (0.5 nM final conc.). After incubation for 10 minutes the reaction was started by the addition of the chromogenic substrate H-D-Phe-Pip-Arg-paranitroaniline (10 or 50 μM final concentration), in which Pip represents the characterizing group 2-piperidylenecarbonyl of the α-aminoacid H-Pip-OH, which is (S)-piperidine-2-carboxylic acid (or L-homoproline). The hydrolysis of the substrate was followed spectrophotometrically on a kinetic microtitre plate reader for 5 minutes.

Factor Xa = Factor Xa (Homo sapiens, UniProt P00742); assay: inhibition of the amidolytic activity of Factor Xa (chromogenic substrate Bz-Ile-Glu-Gly-Arg-paranitroaniline); settings: substrate 167 μM final concentration
thrombin [2] = biological target: T1, thrombin; assay: thrombin test of crude products (chromogenic substrate S-2238, 405 nm); settings: crude product
Protocol: 5 g (1.5 mmol) of Fmoc-TGR resin according to H. Rink Tetrahedron Lett. 28, 3787 (1987) were shaken for 30 minutes. with a 20% solution of piperidine in DMF. Subsequently, the resin was washed with DMF. 1.19 g (3 mmol) of Fmoc-arginine, 950 mg (6 mmol) of 1-hydroxy-benzotriazole (HOBT--containing about 20% water), 570 mg of diisopropylcarbodiimide and DMF were added and the mixture was shaken for 1 hour. The resin was washed with DMF and shaken for 30 minutes with a 20% solution of piperidine in DMF. Thereafter, it was washed with DMF, isopropanol, water and methanol. Subsequently, the resin was distributed in equal portions in 30 reaction vessels, then 0.5 mmol of a carbonyl compound (a. paraformaldehyde, b. pivalaldehyde, c. benzaldehye, d. benzophenone and e. phenylpropionaldehyde) were added to in each case 6 of these vessels, whereafter to each 0.5 mmol of a maleimide (maleimide, N-methyl-, N-butyl-, N-cyclohexylmethyl-, N-phenyl- or N-benzyl-maleimide) was added such that each vessel contains a different pairing of carbonyl compound and maleimide. About 5 ml of a mixture of 150 ml of methanol and 8 ml of acetic acid were added to each vessel as the solvent and the batch was heated under reflux for 22 hours. After cooling the solvent was sucked off and the resin was washed in each case twice with dimethyl sulfoxide, isopropanol, water and isopropanol. The resin was then treated with in each case about 5 ml of a mixture of 40% trifluoroacetic acid, 50% dichloromethane, 5% water and 5% isopropanol and shaken for 2 hours. After filtration the 30 filtrate solutions were concentrated. 30 crude products were thus obtained as yellow oils. For mass spectroscopic and HPLC investigations about 0.5 mg of each oil was removed and taken up in […].

Chain of Factor Xa (P00742 235-488 limits assumed): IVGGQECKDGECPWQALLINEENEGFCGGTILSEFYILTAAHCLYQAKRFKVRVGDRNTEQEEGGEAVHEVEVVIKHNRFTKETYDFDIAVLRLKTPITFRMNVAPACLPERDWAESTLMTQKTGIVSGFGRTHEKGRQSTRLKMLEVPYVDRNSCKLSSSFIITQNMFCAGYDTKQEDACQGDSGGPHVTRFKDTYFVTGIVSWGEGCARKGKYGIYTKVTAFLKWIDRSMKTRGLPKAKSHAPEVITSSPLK
Chain of Factor Xa (P00742 41-179 partner limits assumed): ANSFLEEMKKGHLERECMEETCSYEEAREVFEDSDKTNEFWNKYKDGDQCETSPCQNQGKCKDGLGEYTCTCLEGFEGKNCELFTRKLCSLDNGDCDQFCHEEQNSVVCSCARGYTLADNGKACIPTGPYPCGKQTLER

| SMILES | Ki (thrombin [1]) | also measured |
| --- | --- | --- |
| N=C(N)c1ccc([C@@H]2[C@@H]3C(=O)N(Cc4ccc5c(c4)OCO5)C(=O)[C@@H]3[C@H]3CCCN32)cc1 (racemic) [4.A)g), (3aRS,4SR,8aRS,8bSR)-4-[2-(Benzo[1,3]dioxol-5-ylmethyl)-1,3-dioxo-decahydro-pyrrolo[3,4-a]pyrrolizin-4-yl]-benzimidamide hydrochloride] | 90 nM | – |
| N=C(N)c1ccc([C@@H]2[C@@H]3C(=O)N(CC4CCCCC4)C(=O)[C@@H]3[C@H]3CCCN32)cc1 (racemic) [7.A)g), (3aRS,4SR,8aRS,8bSR)-4-(2-Cyclohexylmethyl-1,3-dioxo-decahydro-pyrrolo[3,4-a]pyrrolizin-4-yl)-benzimidamide hydrochloride] | 350 nM | – |
| N=C(N)c1ccc([C@H]2[C@H]3C(=O)N(Cc4ccc5c(c4)OCO5)C(=O)[C@H]3[C@@H]3CSCN32)cc1 (racemic) [Example 7.A)i), (5RS,5aSR,8aRS,8bRS)-4-[7-(Benzo[1,3]dioxol-5-ylmethyl)-6,8-dioxo-octahydro-pyrrolo[3',4':3,4]pyrrolo[1,2-c]thiazol-5-yl]-benzimidamide hydrochloride] | 440 nM | – |
| CCCCN1C(=O)[C@@H]2[C@H](C1=O)[C@H]1CCCN1[C@@H]2c1ccc(NC(=N)N)cc1 (racemic) [Example 9, (3aRS,4SR,8aRS, 8bSR)-N-[4-(2-Butyl-1,3-dioxo-decahydro-pyrrolo[3,4-a]pyrrolizin-4-yl)-phenyl]-guanidinium nitrate] | 110 nM | – |
| N=C(N)c1ccc([C@@H]2N[C@](COCc3ccccc3)(C(=O)O)[C@@H]3C(=O)N(Cc4ccc([N+](=O)[O-])cc4)C(=O)[C@@H]32)cc1 (racemic) [Example 18, (1RS,3RS,3aSR,6aRS)-1-(benzyloxy-methyl)-3-(4-carbamimidoyl-phenyl)-5-(4-nitro-benzyl)-4,6-dioxo-octahydro-pyrrolo[3,4-c]pyrrole-1-carboxylic acid hydrochloride] | – | Ki (Factor Xa): 98 nM |
| N=C(N)c1ccc([C@@H]2N[C@](COCc3ccccc3)(C(=O)O)[C@@H]3C(=O)N(Cc4ccc(N)cc4)C(=O)[C@@H]32)cc1 (racemic) [Example 19, (1RS,3RS,3aSR,6aRS)-5-(4-amino-benzyl)-1-(benzyloxy-methyl)-3-(4-carbamimidoyl-phenyl)-4,6-dioxo-octahydro-pyrrolo[3,4-c]pyrrole-1-carboxylic acid hydrochloride] | – | Ki (Factor Xa): 76 nM |
| N=C(N)NCCCC1(C(N)=O)NC(c2ccccc2)C2C(=O)N(c3ccccc3)C(=O)C21 (stereo not drawn) [Example 12 m), 3,5-diphenyl-1-(3-guanidino-propyl)-4,6-dioxo-octahydro-pyrrolo[3,4-c]pyrrole-1-carboxamide] | – | inhibitory activity in the thrombin test (thrombin [2]; among the named cycloadducts of Example 12): greatest inhibitory activity |
| CSCCC1(C(=O)O)NC(c2ccc(C(=N)N)cc2)C2C(=O)N(CC3CCCCC3)C(=O)C21 (stereo not drawn) [Example 13 n), 5-cyclohexylmethyl-1-(2-methylsulfanyl-ethyl)-3-(4-carbamimidoyl-phenyl)-4,6-dioxo-octahydro-pyrrolo[3,4-c]pyrrole-1-carboxylic acid] | – | inhibitory activity in the thrombin test (thrombin [2]; among the named cycloadducts of Example 13): greatest inhibitory activity |
| N=C(N)c1ccc(C2C3C(=O)N(c4ccccc4)C(=O)C3C(CO)(C(=O)O)N2CCC(N)=O)cc1 (stereo not drawn) [Example 14 p), 3-hydroxymethyl-5-phenyl-1-(4-carbamimidoyl-phenyl)-2-(2-carbamoyl-ethyl)-4,6-dioxo-octahydro-pyrrolo[3,4-c]pyrrole-3-carboxylic acid] | – | inhibitory activity (determined according to Example 12) (thrombin [2]; among the products of Example 14): highest inhibitory activity |
| N=C(N)c1ccc(C2C3C(=O)N(C(Cc4ccccc4)C(N)=O)C(=O)C3C3CCCN32)cc1 (stereo not drawn) [Example 15] | – | inhibitory activity in the thrombin test (thrombin [2]; among the 20 crude products of Example 15): highest inhibitory activity |

More lines, main results first:

| Ki (thrombin [1]) | SMILES | also measured |
| --- | --- | --- |
| 670 nM | C[C@H]1[C@@H]2C(=O)N(Cc3ccccc3)C(=O)[C@@H]2[C@H](c2ccc(C(=N)N)cc2)N1C (racemic) [4.A)a), (1RS,3SR,3aRS,6aSR)-4-(5-Benzyl-2,3-dimethyl-4,6-dioxo-octahydro-pyrrolo[3,4-c]pyrrol-1-yl)-benzimidamide hydrochloride] | – |
| 670 nM | N=C(N)c1ccc([C@@H]2[C@@H]3C(=O)N(Cc4ccccc4)C(=O)[C@@H]3[C@H]3C[C@H](O)CN32)cc1 [7.A)o), (3aR,4S,7S,8aR,8bS)-4-(2-Benzyl-7-hydroxy-1,3-dioxo-decahydro-pyrrolo[3,4-a]pyrrolizin-4-yl)-benzimidamide hydrochloride] | – |
